Data reported in patent US9539256B2 (THE BOARD OF REGENTS OF THE UNIVERSITY OF TEXAS SYSTEM, priority 2012, dated 2017).
Blank lines part the entries; values can stand above or below the compound they belong to.

Experiments:
[1] = target: T1, EPAC2 (Homo sapiens, UniProt Q8WZA2); experiment: Rap1 activation assay in HEK293/EPAC2 cells; assay type: cell-based; details: for 007-AM induced Rap1 activation: HEK293/EPAC2 cells, pre-treatment with 10 μM compound
T1 construct: HEK293 cells that ectopically express full-length EPAC2 proteins; expressed in transfected cells; host or cells: HEK293
Description: (§1) FIGS. 9A-9B. Effects of EPAC2-specific antagonists on 007-AM-mediated cellular activation of Rap1. […] GTP-bound Rap1 (Rap1GTP) obtained by a Ral-GDSRBD-GST pull-down assay and total cellular Rap1 were detected by immunoblotting with Rap1-specific antibody. […] At test was used to determine statistical significance (*P<0.05).
(§2) Cellular activation of Rap1 was determined by pull-down of lysates derived from human vascular smooth muscle cell and HEK293 cells stably expressing EPAC1 or EPAC2 employing Ral-GDS-RBD-GST affinity beads as described earlier (Mei and Cheng (2005) Molecular Biosystems 1: 325-331).

[2] = target: T2, EPAC1 (Homo sapiens, UniProt O95398); experiment: Phosphorylation of Akt in HEK293/EPAC1 cells; assay type: cell-based; details: stimulation with 007-AM
T2 sequence (O95398 1-923): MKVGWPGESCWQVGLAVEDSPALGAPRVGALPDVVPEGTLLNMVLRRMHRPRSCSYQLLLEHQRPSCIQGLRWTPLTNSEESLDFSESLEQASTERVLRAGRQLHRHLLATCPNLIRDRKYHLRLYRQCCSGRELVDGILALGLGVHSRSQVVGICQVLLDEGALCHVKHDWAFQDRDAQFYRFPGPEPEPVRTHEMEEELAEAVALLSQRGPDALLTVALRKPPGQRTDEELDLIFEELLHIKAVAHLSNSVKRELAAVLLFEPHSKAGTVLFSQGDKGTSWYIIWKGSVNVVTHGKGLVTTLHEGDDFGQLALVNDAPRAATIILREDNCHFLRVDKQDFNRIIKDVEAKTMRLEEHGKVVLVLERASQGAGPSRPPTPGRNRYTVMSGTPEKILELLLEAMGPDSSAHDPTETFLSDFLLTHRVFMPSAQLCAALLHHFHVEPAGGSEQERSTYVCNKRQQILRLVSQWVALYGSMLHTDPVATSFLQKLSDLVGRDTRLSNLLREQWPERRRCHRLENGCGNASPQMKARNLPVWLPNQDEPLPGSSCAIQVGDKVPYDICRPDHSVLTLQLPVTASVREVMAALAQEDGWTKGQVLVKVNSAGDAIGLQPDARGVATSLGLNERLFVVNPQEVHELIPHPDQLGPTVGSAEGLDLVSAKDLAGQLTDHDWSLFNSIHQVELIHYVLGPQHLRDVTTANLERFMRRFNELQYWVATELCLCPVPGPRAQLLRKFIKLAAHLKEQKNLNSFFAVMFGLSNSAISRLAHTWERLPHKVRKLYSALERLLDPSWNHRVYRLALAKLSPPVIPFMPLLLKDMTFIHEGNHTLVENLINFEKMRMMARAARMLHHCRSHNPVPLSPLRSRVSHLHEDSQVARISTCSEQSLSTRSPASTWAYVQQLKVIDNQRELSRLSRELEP
Description: (§3) FIG. 10. Effect of ESI-09 on EPAC-mediated PKB phosphorylation in HEK293/EPAC1, HEK293/EPAC2, and human vascular smooth muscle (hVSMC) cells. Serum-starved HEK293/EPAC1, HEK293/EPAC2, and hVSMC cells with or without pretreatment of […] ESI-09 were stimulated with 10 μM 007-AM. Cell lysates were subjected to Western blot analysis as described under “Experimental Procedures” using anti-phospho-Ser473-specific (PKB-P473) and anti-phospho-Thr308-specific (PKB-P308) PKB antibodies.
(§4) Cellular proteins from cell lysates treated with various reagents were separated by SDS-PAGE and transferred to polyvinylidene difluoride membrane. The levels of Akt activation were probed by immuno-blotting analyses using anti-phosphate T308 PKB antibodies (1:1000) and anti-phosphate S473 PKB antibodies (1:1000). At least three independent experiments were performed for each Western blot.

[3] = target: T1, EPAC2; experiment: Phosphorylation of Akt in HEK293/EPAC2 cells; assay type: cell-based; details: stimulation with 007-AM
Description: as §3, §4

[4] = test system: AsPC-1 and PANC-1 cells; experiment: Cell adhesion assay on collagen I matrix; assay type: cell-based; details: stimulation with 10 μM 007-AM
Description: FIG. 13 ESI-09 inhibits EPAC1-mediated adhesion of PDA cells on collagen I. AsPC-1 and PANC-1 cells were stimulated with vehicle or 10 μM 007-AM after treatment with the indicated concentrations of ESI-09 for 5 minutes. Bars represent mean±s.d.
It has been recently reported that EPAC1 is over-expressed in pancreatic adenocarcinoma (Lorenz et al. (2008) Pancreas 37: 102-103). However, the functional role of EPAC1 elevation in this neoplasm is not clear. The inventors sought to employ ESI-09 to determine the role of EPAC1 signaling in pancreatic cancer. […] In order to determine if the observed impact on cell migration is EPAC1 specific, the effect of suppressing EPAC1 expression on AsPC-1 and PANC-1 migration using RNAi was examined. […] To further determine how ESI-09 inhibits PDA cell migration and invasion, a cell adhesion assay was performed using a collagen I matrix. […] To determine the in vivo anti-metastatic effect of ESI-09, MIA PaCa-2 stably expressing luciferase were orthotopically implanted into the pancreas of athymic nude mice. The mice were randomly divided into two groups and treated with vehicle or ESI-09 (50 mg/kg per day, oral gavage), respectively. The growth and metastasis of the tumors were monitored by weekly bioluminescence imaging using the IVIS bioluminescence imaging system.

[5] = test system: type I PKA holoenzyme; experiment: PKA counter screening, type I holoenzyme; assay type: biochemical; details: 25 μM compound
Description: (§5) Kinase activity of the type I and II PKA holoenzyme are measured spectrophotometrically in a 96-well plate with a coupled enzyme assay as described previously (Cook et al. (1982) Biochemistry 21: 5794-5799). In this assay, the formation of ADP is coupled to the oxidation of NADH by the pyruvate kinase/lactate dehydrogenase reactions so the reaction rate can be determined by following the oxidation of NADH, reflected by a decrease in absorbance at 340 nm. […] Reactions are pre-equilibrated at room temperature and initiated by adding the Kemptide substrate (final concentration 0.26 mM).

[6] = test system: type II PKA holoenzyme; experiment: PKA counter screening, type II holoenzyme; assay type: biochemical; details: 25 μM compound
Description: as §5

[7] = target: T2, EPAC1; experiment: Rap1 activation assay in HEK293/EPAC1 cells; assay type: cell-based
Description: as §1, §2

[8] = target: T2, EPAC1; experiment: Rap1-GDP exchange (GEF) activity assay, EPAC1
[9] = target: T3, EPAC2 (Mus musculus, UniProt Q9EQZ6); experiment: 8-NBD-cAMP competition binding to EPAC2
T3 sequence (Q9EQZ6 1-1011): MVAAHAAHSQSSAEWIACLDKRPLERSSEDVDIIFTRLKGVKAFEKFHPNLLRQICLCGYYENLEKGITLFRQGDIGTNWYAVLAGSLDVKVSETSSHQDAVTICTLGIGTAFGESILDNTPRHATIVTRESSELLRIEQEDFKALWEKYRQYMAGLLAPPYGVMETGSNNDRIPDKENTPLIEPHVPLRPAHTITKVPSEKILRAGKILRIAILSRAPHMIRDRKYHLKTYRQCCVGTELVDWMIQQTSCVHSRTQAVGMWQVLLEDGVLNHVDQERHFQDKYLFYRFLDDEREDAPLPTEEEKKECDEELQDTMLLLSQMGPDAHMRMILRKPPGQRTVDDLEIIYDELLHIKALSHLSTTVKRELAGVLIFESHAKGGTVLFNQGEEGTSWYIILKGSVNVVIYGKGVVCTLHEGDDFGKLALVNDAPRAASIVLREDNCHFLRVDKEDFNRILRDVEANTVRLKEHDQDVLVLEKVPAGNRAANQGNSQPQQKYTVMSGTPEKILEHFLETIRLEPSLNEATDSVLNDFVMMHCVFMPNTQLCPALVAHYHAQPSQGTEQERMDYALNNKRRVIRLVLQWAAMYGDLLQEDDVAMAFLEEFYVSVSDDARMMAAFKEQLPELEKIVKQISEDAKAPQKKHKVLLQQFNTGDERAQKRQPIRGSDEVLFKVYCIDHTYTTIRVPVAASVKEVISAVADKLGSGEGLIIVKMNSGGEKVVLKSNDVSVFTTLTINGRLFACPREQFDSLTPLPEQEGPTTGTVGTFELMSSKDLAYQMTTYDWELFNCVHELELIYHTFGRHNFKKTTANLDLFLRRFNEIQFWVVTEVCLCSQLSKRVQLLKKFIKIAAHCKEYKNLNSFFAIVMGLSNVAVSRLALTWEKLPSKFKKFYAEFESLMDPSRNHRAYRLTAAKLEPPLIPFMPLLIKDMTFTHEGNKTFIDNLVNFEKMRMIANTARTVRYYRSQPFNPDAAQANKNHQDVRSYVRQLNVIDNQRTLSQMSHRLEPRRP
Description: Primary screen is performed in black 96-well or 384-well microplates. As an example, 50 nM EPAC2 solution is prepared in 20 mM Tris buffer, pH 7.5, containing 150 mM NaCl, 1 mM EDTA, and 1 mM […]. […] Sample is dispensed into plate and test compounds added from 96-well mother plates. […] Fluorescence intensity signal from 8-NBD was recorded at room temperature (rt) before and after tested compounds are added using SpectaMaxM2 microplate reader (Molecular Devices, Silicon Valley, Calif., USA) with excitation/emission wavelengths set at 470/540 nm.

T1 sequence (Q8WZA2 whole entry, species assumed): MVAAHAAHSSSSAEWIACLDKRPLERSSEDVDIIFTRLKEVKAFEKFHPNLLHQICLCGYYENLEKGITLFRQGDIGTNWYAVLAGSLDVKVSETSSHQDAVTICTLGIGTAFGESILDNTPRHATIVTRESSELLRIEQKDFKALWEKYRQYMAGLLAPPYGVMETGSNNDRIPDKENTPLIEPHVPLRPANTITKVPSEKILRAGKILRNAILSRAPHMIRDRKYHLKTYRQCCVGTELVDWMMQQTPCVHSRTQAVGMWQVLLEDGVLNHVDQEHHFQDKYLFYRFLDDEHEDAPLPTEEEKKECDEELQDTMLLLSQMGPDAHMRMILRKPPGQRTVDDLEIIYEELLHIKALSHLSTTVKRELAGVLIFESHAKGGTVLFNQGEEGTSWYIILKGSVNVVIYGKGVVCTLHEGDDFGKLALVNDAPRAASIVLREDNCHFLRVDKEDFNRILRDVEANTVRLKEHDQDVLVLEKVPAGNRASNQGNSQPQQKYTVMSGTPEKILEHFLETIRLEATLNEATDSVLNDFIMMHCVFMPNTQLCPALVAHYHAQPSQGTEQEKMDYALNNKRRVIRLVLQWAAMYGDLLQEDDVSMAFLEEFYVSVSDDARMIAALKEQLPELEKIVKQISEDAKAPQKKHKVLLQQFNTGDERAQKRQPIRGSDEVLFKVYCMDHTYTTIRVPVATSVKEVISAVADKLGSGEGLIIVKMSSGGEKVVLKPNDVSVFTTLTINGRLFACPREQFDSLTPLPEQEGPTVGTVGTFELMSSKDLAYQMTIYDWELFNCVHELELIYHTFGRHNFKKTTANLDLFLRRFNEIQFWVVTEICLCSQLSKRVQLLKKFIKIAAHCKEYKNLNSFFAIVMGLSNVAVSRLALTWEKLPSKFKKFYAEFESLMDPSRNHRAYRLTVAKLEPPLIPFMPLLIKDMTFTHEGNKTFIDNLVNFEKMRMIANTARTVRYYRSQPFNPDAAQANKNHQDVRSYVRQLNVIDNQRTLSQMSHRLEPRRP

Structure (SMILES): CO[C@@H]1[C@@H]2OP(=O)(OCOC(C)=O)OC[C@H]2O[C@H]1n1c(Sc2ccc(Cl)cc2)nc2c(N)ncnc21 (stereo partly drawn) [Compound 007-AM, 8-(4-Chlorophenylthio)-2′-O-methyladenosine-3′,5′-cyclic monophosphate, acetoxymethyl ester, reference compound]
fraction of GTP-bound cellular Rap1 ([1]; HEK293/EPAC2 cells treated with 007-AM): increase
Akt phosphorylation for both T308 and S473 [2]: increase
Akt phosphorylation for both T308 and S473 [3]: increase
cell adhesion [4]: increase

Structure (SMILES): O=S(=O)(NCCNC/C=C/c1ccc(Br)cc1)c1cccc2cnccc12 [Compound H89, reference compound]
cAMP-induced type I PKA holoenzyme activation [5]: blocked the type I or II PKA activities completely
cAMP-induced type II PKA holoenzyme activation [6]: blocked the type I or II PKA activities completely

cAMP-induced type I PKA holoenzyme activation [5]: did not significantly alter
cAMP-induced type II PKA holoenzyme activation [6]: did not significantly alter
007-AM induced Rap1 activation [1]: significant reduction
007-AM induced Rap1 activation [7]: ineffective
suppressing EPAC1 GEF activity ([8]; cAMP-mediated Rap1-GDP exchange): completely ineffective
EPAC1 IC50 ([8]; suppressing EPAC1 GEF activity, 25 μM cAMP): NMA*
Structure (SMILES): Cc1ccc(S(=O)(=O)c2c(C)cc(C)cc2C)cc1 [ESI-05]

Relative Potency (RA) ([9]; RA = IC50, cAMP/IC50, compound): 4.5
IC50 ([9]; competing with 8-NBD-cAMP in binding EPAC2, read-out: Apparent IC50): 8.7 ± 1.1 µM
007-AM induced Rap1 activation [1]: much less effective
Structure (SMILES): Cc1ccc(C)c(CSc2nc(C3CCCCC3)c(C#N)c(=O)[nH]2)c1 [ESI-08]
